Measured values: PMC8571316 (Scientific Reports, 2021)
Peptide text beside a SMILES is read from it. * marks the point of attachment. Biotin = O=C1N[C@H]2[C@H](CS[C@H]2CCCCC(=O)*)N1; PEG4 = NCCOCCOCCOCCOCCC(=O)O

Tests used:
SARS-CoV-2 S1 protein [1] = molecular target: T1, SARS-CoV-2 S1 protein (Severe acute respiratory syndrome coronavirus 2, UniProt P0DTC2); experiment: biochemical; assay type: binding; conditions: for kon: read-out: S1 Protein in Binding Buffer ka (1/Ms); for koff: read-out: S1 Protein in Binding Buffer kdis (1/s)
T1 construct: immobilized SARS-CoV-2 S1 protein (His-tag, #S1N-C52H3, Acro Biosystems); His-tag; purchased Acro Biosystems S1N-C52H3

SARS-CoV-2 S1 protein [2] = molecular target: T1, SARS-CoV-2 S1 protein; assay type: binding

Structure (SMILES): CC(C)C[C@H](NC(=O)[C@H](CC(=O)O)NC(=O)[C@H](CCC(=O)O)NC(=O)[C@H](Cc1c[nH]c2ccccc12)NC(=O)[C@H](CCC(=O)O)NC(=O)[C@H](CC(C)C)NC(=O)[C@H](CC(N)=O)NC(=O)[C@H](Cc1ccccc1)NC(=O)[C@@H](NC(=O)[C@H](Cc1ccccc1)NC(=O)[C@H](CC(C)C)NC(=O)[C@H](Cc1ccccc1)NC(=O)[C@H](CC(C)C)NC(=O)[C@@H](NC(=O)[C@H](Cc1c[nH]c2ccccc12)NC(=O)[C@H](CC(=O)O)NC(=O)CCOCCOCCOCCOCCNC(=O)CCCC[C@@H]1SC[C@@H]2NC(=O)N[C@@H]21)[C@@H](C)O)C(C)C)C(=O)N[C@@H](Cc1ccccc1)C(=O)N[C@@H](Cc1ccc(O)cc1)C(=O)O [Peptide P89] ({Biotin-PEG4}-DWTLFLFVFNLEWEDLFY-OH; C-terminus assumed)
- kon (SARS-CoV-2 S1 protein [1]): 7800 M⁻¹ s⁻¹
- koff (SARS-CoV-2 S1 protein [1]): 0.000969 s⁻¹
- binding to S1 protein in ELISA-like assay (in words) (SARS-CoV-2 S1 protein [2]): higher binding affinity than the original ACE2 fragment (SBP1)

Structure (SMILES): CC[C@H](C)[C@H](NC(=O)[C@H](CC(=O)O)NC(=O)[C@H](Cc1ccccc1)NC(=O)[C@H](CC(N)=O)NC(=O)CCOCCOCCOCCOCCNC(=O)CCCC[C@@H]1SC[C@@H]2NC(=O)N[C@@H]21)C(=O)N[C@@H](CC(C)C)C(=O)N[C@@H](CC(C)C)C(=O)N[C@@H](Cc1ccccc1)C(=O)N[C@H](C(=O)N[C@@H](Cc1ccccc1)C(=O)N[C@@H](CC(N)=O)C(=O)N[C@@H](Cc1ccc(O)cc1)C(=O)N[C@@H](CCC(=O)O)C(=O)N[C@@H](CCSC)C(=O)N[C@@H](CCC(=O)O)C(=O)N[C@@H](CC(=O)O)C(=O)N[C@@H](CCCCN)C(=O)N[C@@H](Cc1ccccc1)C(=O)N[C@@H](Cc1ccc(O)cc1)C(=O)O)C(C)C [Peptide P168] ({Biotin-PEG4}-NFDILLFVFNYEMEDKFY-OH; C-terminus assumed)
- kon (SARS-CoV-2 S1 protein [1]): 7490 M⁻¹ s⁻¹
- koff (SARS-CoV-2 S1 protein [1]): 0.00107 s⁻¹
- binding to S1 protein in ELISA-like assay (in words) (SARS-CoV-2 S1 protein [2]): higher binding affinity than the original ACE2 fragment (SBP1)

Structure (SMILES): CC[C@H](C)[C@H](NC(=O)[C@H](CCC(=O)O)NC(=O)[C@H](Cc1ccc(O)cc1)NC(=O)[C@H](Cc1ccc(O)cc1)NC(=O)[C@H](CCSC)NC(=O)[C@H](Cc1c[nH]cn1)NC(=O)[C@H](CCSC)NC(=O)[C@H](Cc1c[nH]c2ccccc12)NC(=O)[C@H](CCCCN)NC(=O)[C@H](CC(=O)O)NC(=O)[C@H](Cc1c[nH]c2ccccc12)NC(=O)[C@H](CCC(=O)O)NC(=O)[C@@H](NC(=O)[C@H](CCCCN)NC(=O)CCOCCOCCOCCOCCNC(=O)CCCC[C@@H]1SC[C@@H]2NC(=O)N[C@@H]21)[C@@H](C)O)C(=O)N[C@@H](Cc1ccccc1)C(=O)N[C@@H](Cc1ccc(O)cc1)C(=O)N[C@@H](CCC(=O)O)C(=O)N[C@@H](CC(=O)O)C(=O)O [Peptide P100] ({Biotin-PEG4}-KTEWDKWMHMYYEIFYED-OH; C-terminus assumed)
- kon (SARS-CoV-2 S1 protein [1]): 3930 M⁻¹ s⁻¹
- koff (SARS-CoV-2 S1 protein [1]): 0.000728 s⁻¹
- binding to S1 protein in ELISA-like assay (in words) (SARS-CoV-2 S1 protein [2]): higher binding affinity than the original ACE2 fragment (SBP1)

Structure (SMILES): CC[C@H](C)[C@H](NC(=O)[C@@H](NC(=O)[C@H](Cc1ccc(O)cc1)NC(=O)[C@H](Cc1ccccc1)NC(=O)[C@H](Cc1ccc(O)cc1)NC(=O)[C@@H](NC(=O)[C@H](CCC(=O)O)NC(=O)[C@H](CCSC)NC(=O)[C@H](Cc1c[nH]c2ccccc12)NC(=O)[C@H](Cc1c[nH]cn1)NC(=O)[C@H](CO)NC(=O)[C@H](Cc1ccccc1)NC(=O)[C@H](CCSC)NC(=O)[C@H](CC(=O)O)NC(=O)[C@H](Cc1c[nH]c2ccccc12)NC(=O)[C@H](CC(=O)O)NC(=O)[C@@H](NC(=O)[C@H](CCCCN)NC(=O)CCOCCOCCOCCOCCNC(=O)CCCC[C@@H]1SC[C@@H]2NC(=O)N[C@@H]21)[C@@H](C)O)[C@@H](C)CC)C(C)C)C(=O)O [Peptide P180] ({Biotin-PEG4}-KTDWDMFSHWMEIYFYVI-OH; C-terminus assumed)
- kon (SARS-CoV-2 S1 protein [1]): 3830 M⁻¹ s⁻¹
- koff (SARS-CoV-2 S1 protein [1]): 0.000929 s⁻¹
- binding to S1 protein in ELISA-like assay (in words) (SARS-CoV-2 S1 protein [2]): higher binding affinity than the original ACE2 fragment (SBP1)
